Values quoted from earlier work, collected in article PMC3215888 (Cancer Chemotherapy and Pharmacology, 2011).

System: Aurora kinase A mutation (T217D)
Conditions: cited from earlier work

O=C(O)c1ccc(Nc2ncc3c(n2)-c2ccc(Cl)cc2C(c2c(F)cccc2F)=NC3)cc1 [MLN8054, reference compound]
inhibition of Aurora kinase A T217D mutant: impervious
